Data taken from paper PMC7417534, “Cytochrome P450 inhibition potential and initial genotoxic evaluation of 14-O-[(4,6-diaminopyrimidine-2-yl)thioacetyl] mutilin” (Scientific Reports, 2020).
pIC50: −log10 of the molar value. Read-outs that look alike come from different tables or passages of the source.

How the values were obtained:
S. typhimurium TA97 = assay: Ames test, strain TA97; format: cell-based, Salmonella typhimurium; details: − S9; positive control, 10 μg/plate
Excerpt: (§1) S. typhimurium strains TA97, TA98, TA100, TA102 and TA1535 were stored and maintained as provided in the standard protocol. Each of the strains was checked for their genetic integrity prior to the experiment, and tested for biotin dependence, histidine dependence, biotin and histidine dependence, rfa marker (crystal violet) and presence of the plasmid pKM101 (ampicillin resistance) or pAQ1 (tetracycline resistance). Different strains were used to identify different types of mutations.
(§2) The test was carried out at five different concentrations of DPTM. […] Then 1 mL solution was diluted with distilled water by two fold. […] The negative control used in this experiment was 1 mL DMSO which was directly incorporated into 9 mL melted top agar.
(§3) The Ames test of DPTM was conducted as described in the literatures[42],[43] with some modifications. Briefly, 1 mL of strain was inoculated into 5 mL of nutrient broth, followed by incubating overnight at 37 °C. The mixture comprised respective strains, drug, negative and positive controls with the S9 for testing in the presence of metabolic activation system. For testing without S9, 1 × phosphate buffer saline (PBS, pH 7.4) replaced the S9 mix. The obtained mixtures were added into the tube, mixed well and incubated at 37 °C for 20 min. Then, the top agar was melted and 2 mL of this melted top agar was added to each tube and gently mixed. […] The results were expressed as the number of revertant colonies per plate. The experiments were performed in triplicate.

CYP3A4 = details: cited from earlier work
S. typhimurium TA100 = details: − S9; positive control, 5 μg/plate
Excerpt: as §1, §2, §3

S. typhimurium TA1535 = details: − S9; positive control, 5 μg/plate
Excerpt: as §1, §2, §3

For `Nc1ccc([N+](=O)[O-])cc1N` [4-nitro-o-phenylenediamine, reference compound], the “revertant colonies per plate, TA97” value (S. typhimurium TA97) was 803 ± 37 CFU.
In the case of `C=C[C@]1(C)C[C@@H](OC(=O)CSc2nc3ccc(N)cc3[nH]2)[C@]2(C)[C@H](C)CC[C@]3(CCC(=O)[C@H]32)[C@@H](C)[C@@H]1O` [14-O-((5-Amino-benzimidazole-2-yl)thioacetyl) mutilin], the pIC50 (CYP3A4; read-out: IC50 value, CYP3A4 inhibition) is listed as 5.77.
For `C=C[C@]1(C)C[C@@H](OC(=O)CS[C@@H]2CC[C@@H](N)C[C@H]2O)[C@]2(C)[C@H](C)CC[C@]3(CCC(=O)[C@H]32)[C@@H](C)[C@@H]1O` [Lefamulin], the pIC50 (CYP3A4; read-out: IC50, inhibition for CYP3A4) is given as over 5.30.
With `[N-]=[N+]=[N-].[Na+]` [sodium azide, reference compound] the “revertant colonies per plate, TA100” value (S. typhimurium TA100) was 984 ± 59 CFU and the “revertant colonies per plate, TA1535” value (S. typhimurium TA1535) was 774 ± 20 CFU.
